Experiments:
[1] = tested on: Differentiated U937 cells; test: MTT assay: cell viability on exposure to test compounds; assay type: cell-based, human; settings: percentage loss of cell viability vs vehicle, 1 μg/mL; for MTT Assay (Viability) 4 h d-U937: 5% FCS; for MTT Assay (Viability) 24 h d-U937: 10% FCS
Summary of the method: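 Differentiated U937 cells were pre-incubated with compound for either 4 h in 5% FCS or 24 h in 10% FCS, then given MTT for 1 h. Formazan was dissolved in DMSO and read at 550 nm. Viability loss is expressed as % versus 0.5% DMSO vehicle, so an apparent gain appears as a negative value.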

[2] = tested on: LPS-induced IL-8 release in d-U937 cells; test: LPS-induced IL-8 release in d-U937 cells; assay type: cell-based; settings: Homo sapiens, dU937, 0.1 μg/mL LPS, 4 hr
Summary of the method: (§1)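 U937 cells differentiated with PMA (100 ng/mL, 48–72 hr), pre-incubated with compound 2 hr, then stimulated with 0.1 μg/mL E. coli O111:B4 LPS for 4 hr. Supernatant TNFα and IL-8 measured by sandwich ELISA; REC50 (TNFα) and IC50 (IL-8 inhibition vs vehicle) taken from concentration-response curves.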

[3] = tested on: Poly I:C-induced ICAM-1 expression in BEAS2B cells; test: Poly I:C-induced ICAM-1 induction in BEAS2B cells; assay type: cell-based; settings: Homo sapiens, BEAS-2B, poly I:C 1 μg/mL, 18 hr, read-out: PolyI:C/ICAM1 IC50 BEAS2B
Summary of the method: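 Human bronchial epithelial BEAS2B cells were pre-incubated with compound for 2 h, then transfected with poly I:C at 1 μg/mL. Surface ICAM-1 was measured 18 h later by cell-based ELISA (OD450–655), normalised to crystal-violet cell number (OD595). IC50 was taken from the concentration–response curve against vehicle.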

[4] = tested on: LPS-induced TNFα release in THP-1 cells; test: LPS-induced TNFα release in THP-1 cells; assay type: cell-based; settings: Homo sapiens, 3 μg/mL LPS, 4 hr
Summary of the method: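 Human monocytic cells were stimulated with 3 μg/mL E. coli LPS for 4 hr. Supernatant TNFα was measured by sandwich ELISA. Inhibition was taken relative to vehicle control, and IC50 derived from the concentration-response curve.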

[5] = molecular target: T1, p38 MAPKα isoform (MAPK14: Invitrogen) (Homo sapiens, UniProt Q16539); test: p38 MAPKα enzyme inhibition assay (FRET, Z-LYTE, via MAPKAP-K2 activation); assay type: biochemical; settings: 2 hr pre-incubation, ATP 10.0 μM; read-out: Enzyme Inhibition IC50 p38α
T1 construct: purchased Invitrogen
Protocol: (§2) The enzyme inhibitory activities of compounds disclosed herein were determined by fluorescence resonance energy transfer (FRET) using synthetic peptides labelled with both donor and acceptor fluorophores (Z-LYTE, Invitrogen Ltd., Paisley, UK). Recombinant, phosphorylated p38 MAPKγ (MAPK12:Invitrogen) was diluted in HEPES buffer, mixed with the test compound at the desired final concentrations and incubated for 2 hr at RT. The FRET peptide (2 μM) and ATP (100 μM) were added to the enzyme/compound mixture and incubated for 1 hr. Development reagent (protease) was added for 1 hr prior to detection in a fluorescence microplate reader (Varioskan® Flash, ThermoFisher Scientific). The site-specific protease cleaves non-phosphorylated peptide only and eliminates the FRET signal. Phosphorylation levels of each reaction were calculated using the ratio of coumarin emission (donor) over fluorescein emission (acceptor) for which high ratios indicate high phosphorylation and low ratios indicate low phosphorylation levels.
For the p38 MAPKα isoform (MAPK14: Invitrogen), enzyme activity was evaluated indirectly by determining the level of activation/phosphorylation of the down-stream molecule, MAPKAP-K2. The p38 MAPKα protein was mixed with the test compound for 2 hr at RT. […] Development reagent was then added and the mixture incubated for 1 hr before detection by fluorescence completed the assay protocol.

[6] = molecular target: T2, Recombinant, phosphorylated p38 MAPKγ (MAPK12:Invitrogen) (Homo sapiens, UniProt P53778); test: p38 MAPKγ enzyme inhibition assay (FRET, Z-LYTE); assay type: biochemical; settings: 2 hr pre-incubation, ATP 100 μM; read-out: Enzyme Inhibition IC50 p38γ
T2 construct: purchased Invitrogen
T2 sequence (P53778 1-367): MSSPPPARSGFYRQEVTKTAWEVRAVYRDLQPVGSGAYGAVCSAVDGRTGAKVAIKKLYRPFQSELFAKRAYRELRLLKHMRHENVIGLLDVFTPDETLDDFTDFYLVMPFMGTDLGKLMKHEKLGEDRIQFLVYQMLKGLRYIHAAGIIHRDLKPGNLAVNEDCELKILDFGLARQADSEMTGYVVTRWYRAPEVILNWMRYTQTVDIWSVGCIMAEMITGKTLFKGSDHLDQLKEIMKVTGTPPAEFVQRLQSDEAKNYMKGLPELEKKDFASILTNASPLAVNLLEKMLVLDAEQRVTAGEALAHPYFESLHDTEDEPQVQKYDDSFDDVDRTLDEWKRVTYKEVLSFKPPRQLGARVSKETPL
Protocol: as §2

[7] = tested on: LPS-induced TNFα release in d-U937 cells; test: LPS-induced TNFα release in d-U937 cells; assay type: cell-based; settings: Homo sapiens, dU937, 4 h; read-out: LPS/TNFα REC50 d-U937
Summary of the method: as §1

T1 sequence (Q16539 whole entry, canonical isoform): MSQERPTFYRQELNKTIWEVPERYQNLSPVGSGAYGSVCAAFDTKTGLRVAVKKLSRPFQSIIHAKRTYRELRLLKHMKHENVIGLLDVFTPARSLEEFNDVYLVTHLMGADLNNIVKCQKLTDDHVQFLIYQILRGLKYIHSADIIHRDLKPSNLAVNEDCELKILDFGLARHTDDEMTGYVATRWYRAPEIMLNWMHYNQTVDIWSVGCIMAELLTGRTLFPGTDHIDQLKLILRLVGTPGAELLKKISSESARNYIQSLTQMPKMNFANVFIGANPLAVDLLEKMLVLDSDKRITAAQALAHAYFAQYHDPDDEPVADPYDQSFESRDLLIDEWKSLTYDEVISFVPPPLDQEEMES

SMILES | IC50 [2] [nM] | IC50 [4] [nM] | IC50 [5] [nM] | IC50 [6] [nM] | EC50 [7] [nM] | MTT Assay (Viability) 4 h d-U937 [1] [%] | MTT Assay (Viability) 24 h d-U937 [1] [%] | IC50 [3] [nM]
COCC(=O)Nc1cc(Oc2ccc(NC(=O)Nc3cc(C(F)(F)F)nn3-c3ccc(C)cc3)c3ccccc23)ccn1 [Example 29, 2-methoxy-N-(4-(4-(3-(1-p-tolyl-3-(trifluoromethyl)-1H-pyrazol-5-yl)ureido)naphthalen-1-yloxy)pyridin-2-yl)acetamide] | > 1690 | 138 | 7.7 | 14500 | 3300 | 0.8 | −5.7 | 412
COCC(=O)Nc1cc(Oc2ccc(NC(=O)Nc3cc(C(F)(F)C(F)(F)F)nn3-c3ccc(C)cc3)c3ccccc23)ccn1 [Example 30, 2-methoxy-N-(4-(4-(3-(3-(perfluoroethyl)-1-p-tolyl-1H-pyrazol-5-yl)ureido)naphthalen-1-yloxy)pyridin-2-yl)acetamide] | 1910 | 10.2 | 10.1 | > 15600 | 108 | −6.3 | −46.1 | 1490
CNS(=O)(=O)Cc1ccc(-n2nc(C(C)(C)C)cc2NC(=O)Nc2ccc(Oc3ccnc(NC(=O)COC)c3)c3ccccc23)cc1 [Example 31, N-(4-(4-(3-(3-tert-butyl-1-(4-((N-methylsulfamoyl)methyl)phenyl)-1H-pyrazol-5-yl)ureido)naphthalen-1-yloxy)pyridin-2-yl)-2-methoxyacetamide] | 19.6 | 1 | 17.1 | 77.2 | 0.8 | 1.7 | 50.1 | > 149
CNC(=O)Nc1cc(Oc2ccc(NC(=O)Nc3cc(C(C)(C)C)nn3-c3ccc(OC)cc3)c(C)c2C)ccn1 [Example 37, 1-(4-(4-(3-(3-tert-butyl-1-(4-methoxyphenyl)-1H-pyrazol-5-yl)ureido)-2,3-dimethylphenoxy)pyridin-2-yl)-3-methylurea] | 18.1 | 1.5 | 29.1 | 117 | 1.4 | 5.3 | 42.7 | 2.6
CNC(=O)Nc1cc(Oc2ccc(NC(=O)Nc3cc(C(C)(C)C)nn3-c3ccc(OC)cc3)c3ccccc23)ccn1 [Example 38, 1-(4-(4-(3-(3-tert-butyl-1-(4-methoxyphenyl)-1H-pyrazol-5-yl)ureido)naphthalen-1-yloxy)pyridin-2-yl)-3-methylurea] | 21.8 | 1.7 | 15.7 | 122 | 18.4 | −1.7 | −38.2 | 9.8
CNC(=O)Nc1cc(Oc2ccc(NC(=O)Nc3cc(C(C)(C)C)nn3-c3ccc(OC)nc3)c(C)c2C)ccn1 [Example 39, 1-(4-(4-(3-(3-tert-butyl-1-(6-methoxypyridin-3-yl)-1H-pyrazol-5-yl)ureido)-2,3-dimethylphenoxy)pyridin-2-yl)-3-methylurea] | 23.2 | 1.8 | 30.7 | 81.8 | 1.8 | −12.6 | 21.6 | 2.9
COCC(=O)Nc1cc(Oc2ccc(NC(=O)Nc3cc(C(C)(C)C)nn3-c3ccc(OC(F)(F)F)cc3)c3ccccc23)ccn1 [Example 41, N-(4-(4-(3-(3-tert-butyl-1-(4-(trifluoromethoxy)phenyl)-1H-pyrazol-5-yl)ureido)naphthalen-1-yloxy)pyridin-2-yl)-2-methoxyacetamide] | 10.4 | 7.6 | 26.1 | 875 | 15.2 | −26.2 | 1.3 | 21.4
COCC(=O)Nc1cc(Oc2ccc(NC(=O)Nc3cc(C(C)(C)C)nn3-c3ccc(Cl)cc3)c3ccccc23)ccn1 [Example 42, N-(4-(4-(3-(3-tert-butyl-1-(4-chlorophenyl)-1H-pyrazol-5-yl)ureido)naphthalen-1-yloxy)pyridin-2-yl)-2-methoxyacetamide] | 18.9 | 2.8 | 25 | 239 | 7.2 | −10.7 | −24.9 | 22.2

These reach a lower IC50 [2]. Values come first.

IC50 [2] [nM] | IC50 [4] [nM] | IC50 [5] [nM] | IC50 [6] [nM] | EC50 [7] [nM] | SMILES | MTT Assay (Viability) 4 h d-U937 [1] [%] | MTT Assay (Viability) 24 h d-U937 [1] [%] | IC50 [3] [nM]
0.7 | 0.7 | 7.7 | 78.4 | 0.1 | COCC(=O)Nc1cc(Oc2ccc(NC(=O)Nc3cc(C(C)(C)C)nn3-c3cccc(O)c3)c3ccccc23)ccn1 [Example 32, N-(4-(4-(3-(3-tert-butyl-1-(3-hydroxyphenyl)-1H-pyrazol-5-yl)ureido)naphthalen-1-yloxy)pyridin-2-yl)-2-methoxyacetamide] | 5.8 | 42.2 | 5.5
7 | 1 | 5.3 | 180 | 0.7 | CNC(=O)Nc1cc(Oc2ccc(NC(=O)Nc3cc(C(C)(C)C)nn3-c3ccc(O)cc3)c3ccccc23)ccn1 [Example 33, 1-(3-tert-butyl-1-(4-hydroxyphenyl)-1H-pyrazol-5-yl)-3-(4-(2-(3-methylureido)pyridin-4-yloxy)naphthalen-1-yl)urea] | −1.3 | −24.1 | 4.4
0.8 | 0.8 | 15.1 | 153 | 0.1 | COCC(=O)Nc1cc(Oc2ccc(NC(=O)Nc3cc(C(C)(C)C)nn3-c3cccc(OC)c3)c3ccccc23)ccn1 [Example 36, N-(4-(4-(3-(3-tert-butyl-1-(3-methoxyphenyl)-1H-pyrazol-5-yl)ureido)naphthalen-1-yloxy)pyridin-2-yl)-2-methoxyacetamide] | −5.2 | −1.6 | 4.9
6.2 | 1.5 | 15.6 | 113 | 0.9 | COc1ccc(-n2nc(C(C)(C)C)cc2NC(=O)Nc2ccc(Oc3ccnc(NC(=O)N4CCOCC4)c3)c3ccccc23)cn1 [Example 40, N-(4-(4-(3-(3-tert-butyl-1-(6-methoxypyridin-3-yl)-1H-pyrazol-5-yl)ureido)naphthalen-1-yloxy)pyridin-2-yl)morpholine-4-carboxamide] | −12.1 | −12.0 | 4.8
8.9 | 2 | 8.3 | 192 | 1.6 | COCC(=O)Nc1cc(Oc2ccc(NC(=O)Nc3cc(C(C)(C)C)nn3-c3ccc(C(=O)OC)cc3)c3ccccc23)ccn1 [Example 43, methyl 4-(3-tert-butyl-5-(3-(4-((2-(2-methoxyacetamido)pyridin-4-yl)oxy)naphthalen-1-yl)ureido)-1H-pyrazol-1-yl)benzoate] | −12.8 | 0.1 | 1.7
5.9 | 1.2 | 15.1 | 194 | 0.1 | COCC(=O)Nc1cc(Oc2ccc(NC(=O)Nc3cc(C(C)(C)C)nn3-c3ccc(SC)cc3)c3ccccc23)ccn1 [Example 44, N-(4-(4-(3-(3-tert-butyl-1-(4-(methylthio)phenyl)-1H-pyrazol-5-yl)ureido)naphthalen-1-yloxy)pyridin-2-yl)-2-methoxyacetamide] | −4.0 | −16.4 | 7.5
